Laboratory results reported in patent US20150276568A1 (priority 2012, published 2015).

Key:
[1] = type: physicochemical; conditions: extraction time varied 0-60 minutes; dihexyl ether; 900 rpm
[2] = from reference [17]; cited from earlier work

SMILES | Extraction time for PALME system to enter equilibrium [1] [min] | Therapeutic range [2] [ng/mL]
O=C(CCCN1CCC(O)(c2ccc(Cl)cc2)CC1)c1ccc(F)cc1 [Haloperidol] | 15 | 
CCC(=O)C(CC(C)N(C)C)(c1ccccc1)c1ccccc1 (centres unmarked) [Methadone] | 15 | 100 to 500
CNCCC=C1c2ccccc2CCc2ccccc21 [Nortriptyline] | 30 | 
CCOC(=O)C1(c2ccccc2)CCN(C)CC1 [Pethidine] |  | 100 to 800
